This note sets out measurements from patent US8962647B1, “Conjugate of polyethylene gylcol and naloxone and pharmaceutical composition and use thereof” (Jenkem Technology Co., Ltd. (Tianjin), priority 2012, dated 2015).

The target of this test is T1, MOR receptors (Homo sapiens, UniProt P35372).
T1 construct: expressed in transfected cells; host or cells: CHO cells
The test can be described thus: cell-based. The conditions noted are these: CHO cells stably expressing MOR/Gα16; calcium flux caused by known agonist DAMGO; fluorescence at 525 nm. Type of test: cell-based. In general terms: Calcium assays in cells follow changes in intracellular calcium, usually with a dye or a luminescent sensor.

T1 sequence (P35372 whole entry): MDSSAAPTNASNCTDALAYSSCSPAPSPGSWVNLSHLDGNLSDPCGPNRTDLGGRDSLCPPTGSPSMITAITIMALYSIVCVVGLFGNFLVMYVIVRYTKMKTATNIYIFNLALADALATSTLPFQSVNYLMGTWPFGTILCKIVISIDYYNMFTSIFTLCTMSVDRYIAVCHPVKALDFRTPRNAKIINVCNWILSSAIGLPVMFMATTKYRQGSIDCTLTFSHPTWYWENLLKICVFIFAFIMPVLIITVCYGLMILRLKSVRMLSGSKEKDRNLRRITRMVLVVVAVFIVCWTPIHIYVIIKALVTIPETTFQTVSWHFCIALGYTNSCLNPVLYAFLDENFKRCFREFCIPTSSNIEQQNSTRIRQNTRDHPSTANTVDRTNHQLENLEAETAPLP
From the text: A cell line co-transfected with MOR and Gα16 is established, such that activation of receptors can activate Ga16 protein, which in turn activates phospholipase C (PLC) to generate IP3 and DAG. IP3 can bind to IP3 receptors on endoplasmic reticulum and mitochondria in the cells, thereby triggering the release of intracellular calcium. Therefore, detection of intracellular calcium levels can be employed as a measure for detecting the activation state of MOR. Fluo-4/AM is a calcium fluorescent probe indicator for measuring calcium ions. It is a non-polar liposoluble compound, which, upon entering a cell and by the action of lipolytic enzymes, releases Fluo-4 while the AM moiety is dissociated. As a polar molecule, Fluo-4 cannot easily pass through the lipid bilayer membrane, thus it is retained in the cells for a long duration. Eventually, the level of activation of Gα proteins is reflected by measuring the intensity of fluorescence that is excited.
1. inoculating CHO cells stably expressing MOR/Gα16 in a 96-well plate and incubating the same overnight;
2. removing the medium from the wells inoculated with cells, adding freshly prepared dye (40 μl/well), and incubating for 40 minutes in a thermostatic incubator of 37° C.;
3. diluting the test substances with a calcium buffer and homogenizing; […]

As to `C=CCN1CC[C@]23c4c5ccc(O)c4O[C@H]2[C@@H](OCCOCCOCCOCCO[C@H]2CC[C@@]4(O)[C@H]6Cc7ccc(O)c8c7[C@@]4(CCN6CC=C)[C@H]2O8)CC[C@@]3(O)[C@H]1C5` [(α,α)-NAL24, double-end substituted tetraethylene glycol-naloxone], the IC50 (as a rule, the concentration needed to halve the response being measured) worked out at 7.16 nM. Consider `COC(=O)/C=C/C(=O)N[C@@H]1CC[C@@]2(O)[C@H]3Cc4ccc(O)c5c4[C@@]2(CCN3CC2CC2)[C@H]1O5` [Beta-FNA], for which the concentration for half-maximal inhibition (IC50) was 2.62 nM.
